Broadly, the MIC is the smallest concentration in the dilution series that meets the test's criterion for growth inhibition. One may read the MBC as the lowest tested concentration that kills the bacteria rather than only halting them.

The structures appear in SMILES notation.

This note sets out measurements from US20100291168A1, “ANTIMICROBIAL FORMULATIONS COMPRISING A COMBINATION OF A PYRIDINE THIOL AND A BIS-QUINOLINIUM SALT” (priority 2007, published 2010).

The subject of assay [1] is P. acnes NCTC 737. Put plainly: Minimum Inhibitory Concentration (MIC) assay. In kind it is cell-based, Propionibacterium acnes. On the procedure: (§1) The propionibacteria were cultured and maintained on Wilkins-Chalgren Anaerobe Medium (agar and broth) at pH 6.0; all cultures were incubated anaerobically at 37° C. for 72 hours.
(a) Minimum Inhibitory Concentration (MIC) Assay
This is a standard international method for quantitatively assessing the antimicrobial activity of a compound in a liquid medium. The method used a sterile 96-well microtitre plate, capable of holding about 200 μl of liquid per well. The wells contained liquid culture medium and ranges of decreasing concentrations of the relevant test compound in doubling dilutions (eg, 1000, 500, 250, 125 . . . μg/ml, etc. down to 0.49 μg/ml). The culture medium was as described above.
The wells were inoculated with a liquid suspension of freshly grown micro-organism and incubated under the conditions described above. After incubation, the microtitre plate was examined visually (with the aid of a light box) for cloudiness in each well, which would indicate microbial growth. The MIC value was recorded as the lowest concentration of test compound required to inhibit microbial growth, ie, the lowest concentration for which the liquid in the well remained clear.
The assays were conducted in duplicate and included both negative (culture medium with no micro-organisms) and positive (culture medium plus diluting solvent plus micro-organism) controls.
(§2) The following experiments all used P. acnes NCTC 737 as the test organism.
(§3) MIC, MBC and DDA assays, as described above, were carried out using the test compounds (a) dequalinium chloride (DC), dissolved in ethanol and (b) zinc pyrithione (ZP), dissolved in DMSO. Both compounds were sourced from Sigma-Aldrich, UK.
(§4) The general method of Example 1 was repeated using another bis-quinolinium salt, dequalinium iodide (DI), which was also obtained from Sigma-Aldrich, UK. This compound was tested against P. acnes NCTC 737, both alone and in combination with ZP.

Assay [2] deals with Cor. mucifaciens ATCC 700355. Put plainly: (S)DDA. The assay is classed as cell-based, Corynebacterium mucifaciens. Particulars: Table 7, 200 μg DI or 200 μg ZP per disc. On the procedure: The activity of a DC/ZP combination was determined, using (S)DDAs, against two further test micro-organisms, namely C. difficile ATCC 7000057 and Cor. mucifaciens ATCC 700355. A DI/ZP combination was also tested against Cor. mucifaciens.
In these tests, 50 μg (for C. difficile) or 200 μg (for Cor. mucifaciens) of the DC was loaded onto each disc. The DI and the ZP were both loaded at 200 μg per disc. All the (S)DDA experiments were conducted in triplicate.

The test system of assay [3] is P. acnes NCTC 737. Put plainly: Minimum Bactericidal Concentration (MBC) assay. The assay is classed as cell-based, Propionibacterium acnes. As for the experimental part: as §1
(b) Minimum Bactericidal Concentration (MBC) Assay
This assay, normally carried out after an MIC assay, determines the minimum concentration of a compound that is lethal to the micro-organism being tested.
These samples were then individually sub-cultured on antibiotic-free agar medium, under the incubation conditions described above. Following incubation they were examined visually for bacterial growth.
The ratio of MIC to MBC should ideally be as close to 1 as possible.
as §2, §3, §4

For assay [4], the system named is P. acnes NCTC 737. Put plainly: Disc diffusion / synergy disc diffusion assay ((S)DDA). Particulars: Example 3, zone of inhibition diameter, 50 μg DI or 200 μg ZP per disc, both in DMSO. The assay is classed as cell-based, Propionibacterium acnes. As for the experimental part:
as §1
(c) Disc Diffusion Assay (DDA)
This is an internationally recognised standard method for qualitatively assessing the antimicrobial activity of a compound.
A sterile paper disc was impregnated with a sample of the test compound in a suitable solvent and 30 minutes allowed for the solvents to evaporate (where possible). The disc was then placed on an agar plate onto which the test micro-organism had been inoculated. The plate was then incubated under the conditions described above, following which it was examined visually for signs of microbial growth. […] The diameter of this zone of “inhibition” was measured using a ProtoCOL™ automated zone sizer (Synbiosis, Cambridge, UK).
(d) Synergy Disc Diffusion Assay (SDDA)
This is a variation on the DDA method, in which two compounds are tested together for their combined antimicrobial activity.
Two test compounds A and B were placed on a single paper disc and the above described DDA procedure repeated.
Mixtures of the two test compounds were then subjected to SDDA assays as described above.
For the (S)DDA experiments, 50 μg of the DC was loaded onto each disc, and 200 μg of the ZP. All the (S)DDA experiments were conducted in triplicate.
For the (S)DDA experiments, 50 μg of the DI was loaded onto each disc, and 200 μg of the ZP. The DI and ZP were both dissolved in DMSO.
All the (S)DDA experiments were conducted in triplicate.
On the technique in general: Agar diffusion results depend on both activity and mobility in agar.

In the case of `Cc1cc(N)c2ccccc2[n+]1CCCCCCCCCC[n+]1c(C)cc(N)c2ccccc21.[I-].[I-]` [DI, dequalinium iodide], in the assay on P. acnes NCTC 737 [1], the “activity of compound alone (MIC, MBC, DDA data)” value is “active”. Also, the MIC with P. acnes NCTC 737 [1] (anaerobic, 37° C., 72 hours) was found to be 3.9 µg/mL. Further, the DDA in assay [2] is given as 22.93 mm; in the assay on P. acnes NCTC 737 [4] it was 21.92 mm. Moreover, in the assay with P. acnes NCTC 737 [3], the MIC/MBC ratio was found to be 0.03. In addition, the MBC with P. acnes NCTC 737 [3] (sub-culture after MIC assay) is 125 µg/mL.
